Test results reported in ChEMBL document CHEMBL5727273, “Heteroaryldiazepine derivatives as RSV inhibitors” (2019).

Assay: RSV assay: Following extensive parameter testing, the final assay is run as follows: HEp-2 cells are seeded into the inner 60 wells of a 96-well plate at 8,000 cells per well in a volume of 50 μL using Growth Media (DMEM without phenol red, 1% L-Glut, 1% Penn/Strep, 1% nonessential amino acids, 10% FBS). 2-fold serial dilutions of control and test compounds are added to the wells in duplicate in a total volume of 25 μL. Viral stock is then added to the wells in a volume of 25 μL, bringing the total volume of each well to 100 μL. Each 96-well plate has a control column of 6 wells with cells and virus but no compound (negative control, max CPE), a column with cells but no compound or virus (positive control, minimum CPE), and a column with no cells or virus or compound (background plate/reagent control). The control wells with cells but no virus are given an additional 25 uL of growth media containing an equal quantity of sucrose as those wells receiving the viral stock in order to keep consistent in media and volume conditions. The outer wells of the plate are filled with 125 μL of growth media to act as a thermal and evaporative moat around the test wells. Following a 4-day incubation period, the plates are read using ATPlite (50 uL added per well), which quantifies the amount of ATP (a measure of cell health) present in each well. Assay plates are read using the Envision luminometer.

Work on Cc1cc(C(=O)c2ccccc2)c(N)s1 yielded an EC50 greater than 0.8 µM and an EC50 (HEp-2) of less than 0.4 µM.
Work on NC1N=C(c2ccccc2)c2sccc2NC1=O (centres undefined) yielded an EC50 (HEp-2) of 0.6 µM.
In the case of O=C1Nc2cccnc2C(c2ccccc2)=NC1Nc1nnc(-c2ccccc2)o1 (centres undefined), the EC50 (HEp-2) is reported as greater than 0.8 µM.
With O=C1Nc2ncccc2C(c2ccccc2)=NC1Nc1nnc(-c2ccc(F)cc2)o1 (centres undefined) the EC50 (HEp-2) was greater than 0.8 µM.
Work on O=C1Nc2cnccc2C(c2ccccc2)=NC1Nc1nnc(-c2ccc(F)cc2)o1 (centres undefined) yielded an EC50 (HEp-2) greater than 0.8 µM.
Cc1sc2c(c1C)C(c1ccccc1)=NC(Nc1nnc(-c3ncc(C(F)(F)F)cc3N3CCOCC3)o1)C(=O)N2 (centres undefined) gave an EC50 greater than 0.8 µM and an EC50 (HEp-2) of 0.6 µM.
O=C(NC1N=C(c2ccccc2)c2ccsc2NC1=O)OCc1ccccc1 (centres undefined) showed an EC50 (HEp-2) of 0.6 µM.
